Source: US5401490A, “Markers of tissue hypoxia” (priority 1989, dated 1995)

Columns and labels:
[1] = test system: BALB/C mice bearing subcutaneous EMT-6 tumors; assay: Tissue distribution of radioactivity after intravenous injection; type: in vivo; conditions: for Tissue to Blood Ratio, Bone / Tissue to Blood Ratio, Carcass / Tissue to Blood Ratio, Heart / Tissue to Blood Ratio, Intestine / Tissue to Blood Ratio, Kidney / Tissue to Blood Ratio, Liver / Tissue to Blood Ratio, Lung / Tissue to Blood Ratio, Muscle / Tissue to Blood Ratio, Spleen / Tissue to Blood Ratio, Stomach / Tissue to Blood Ratio, Tumor: i.v.
Description: Tables 1 and 2 show the percent of injected IAZG and IAZA respectively per gram of wet tissue for selected tissues excised from BALB/C mice bearing EMT-6 tumors. This tumor model is known to have a high hypoxic fraction (0.33) (16). […] Hepatobiliary excretion may play a role in blood clearance as evidenced by elevated liver radioactivity and the appearance of activity in the intestine. Some oxidative or reductive metabolites of the 2-nitroimidazoles may also become bound to liver tissue, as was postulated in an in vivo study with ^14 C-MISO (6). This supposition is supported by the persistence of liver radioactivity at longer time periods. […] At 8 and 24 hours thyroid levels of IAZG are 7.2 and 30.9% of the total body activity and for IAZA they are 7.9 and 33.8% of total body activity. EXAMPLE 11 TISSUE DISTRIBUTION AND EXCRETION Tumor propagation of EMT-6 tumors in BALB/C mice was accomplished by subcutaneous injection of a cell suspension (10^5 cells in 0.1 mL) as described previously (10). Tumors reached about 10 mm in diameter (≈0.5 g) at 12 to 14 days, at which time each animal was given a bolus intravenous injection of ^125 I-labelled test drug via the tail vein (40 to 60 kBq in 0.1 mL). At set time periods the animals were asphyxiated with CO2 and exsanguinated via cardiac puncture. Tissues were dissected, weighed wet into vials and counted for ^125 I-activity. Whole-body activity was determined by summation of total activity in tissues and in residual carcass, and blood activity was determined from the blood aliquot, assuming blood to be 6.5% of the total body weight. EXAMPLE 12 Male BALB/c mice (20-25 g) were inoculated subcutaneously in the left flank with a suspension of murine EMT-6 cells (10^5 cells in 0.1 mL) (14). After 12 to 14 days, when the tumors reached the desired size (8-10 mm diameter), each mouse received a single intravenous (iv) injection of ^125 I-IAZA (59 kBq in 0.1 mL). […] Heart, lung, liver, spleen, muscle, bone, thyroid, kidney, stomach, small intestine, tail, tumor and skin were removed upon necropsy, weighed and analyzed for ^125 I using a Beckman Model 8000 gamma scintillation counter. The remaining carcass mass was also weighed and radioassayed.

EMT-6 cells = assay: Hypoxic cell radiosensitizing ability (post-irradiation survival); type: cell-based, mouse
Description: Cell cultures were examined under oxic (air) and hypoxic incubation, with various concentrations of test drug, and at several doses of radiation.

EMT-6 tumor tissue = assay: Imaging study using ^125 I-IAZA; type: in vivo
[2] = Long term storage in solution; type: physicochemical
Description: Both IAZA and IAZG are synthesised, in high yield, from commercial precursors (FIG. 1) and undergo high-yield isotope exchange reactions with radioiodine to produce the required radiolabelled test compounds. […] Therefore, the compounds were stored as a dry residue in multidose vials under refrigeration and were reconstituted with the appropriate solvent just prior to use. IAZP is similarly synthesised. It will be known to those skilled in the art that other radio halogens may be similarly employed in the exchange reaction.

SMILES: O=[N+]([O-])c1nccn1[C@@H]1O[C@H](CI)[C@@H](O)[C@@H]1O [IAZA, 1-(5-iodo-5-deoxy-β-D-arabino-furanosyl)-2-nitroimidazole]
- Tissue to Blood Ratio, Bone ([1]; 0.25 h): 0.50
- Tissue to Blood Ratio, Carcass ([1]; 0.25 h): 1.02
- Tissue to Blood Ratio, Heart ([1]; 0.25 h): 1.78
- Tissue to Blood Ratio, Intestine ([1]; 0.25 h): 2.06
- Tissue to Blood Ratio, Kidney ([1]; 0.25 h): 2.49
- Tissue to Blood Ratio, Liver ([1]; 0.25 h): 3.29
- Tissue to Blood Ratio, Lung ([1]; 0.25 h): 1.75
- Tissue to Blood Ratio, Muscle ([1]; 0.25 h): 1.17
- Tissue to Blood Ratio, Spleen ([1]; 0.25 h): 1.36
- Tissue to Blood Ratio, Stomach ([1]; 0.25 h): 1.66
- Tissue to Blood Ratio, Tumor ([1]; 0.25 h): 0.97
- Tissue to Blood Ratio, Bone ([1]; 0.50 h): 0.63
- Tissue to Blood Ratio, Carcass ([1]; 0.50 h): 1.18
- Tissue to Blood Ratio, Heart ([1]; 0.50 h): 1.64
- Tissue to Blood Ratio, Intestine ([1]; 0.50 h): 2.04
- Tissue to Blood Ratio, Kidney ([1]; 0.50 h): 2.61
- Tissue to Blood Ratio, Liver ([1]; 0.50 h): 3.29
- Tissue to Blood Ratio, Lung ([1]; 0.50 h): 1.74
- Tissue to Blood Ratio, Muscle ([1]; 0.50 h): 1.28
- Tissue to Blood Ratio, Spleen ([1]; 0.50 h): 1.38
- Tissue to Blood Ratio, Stomach ([1]; 0.50 h): 2.19
- Tissue to Blood Ratio, Tumor ([1]; 0.50 h): 1.60
- Tissue to Blood Ratio, Bone ([1]; 1 h): 0.63
- Tissue to Blood Ratio, Carcass ([1]; 1 h): 1.21
- Tissue to Blood Ratio, Heart ([1]; 1 h): 1.51
- Tissue to Blood Ratio, Intestine ([1]; 1 h): 2.52
- Tissue to Blood Ratio, Kidney ([1]; 1 h): 2.38
- Tissue to Blood Ratio, Liver ([1]; 1 h): 3.06
- Tissue to Blood Ratio, Lung ([1]; 1 h): 1.63
- Tissue to Blood Ratio, Muscle ([1]; 1 h): 1.19
- Tissue to Blood Ratio, Spleen ([1]; 1 h): 1.35
- Tissue to Blood Ratio, Stomach ([1]; 1 h): 2.15
- Tissue to Blood Ratio, Tumor ([1]; 1 h): 1.46
- Tissue to Blood Ratio, Bone ([1]; 2 h): 0.64
- Tissue to Blood Ratio, Carcass ([1]; 2 h): 1.60
- Tissue to Blood Ratio, Heart ([1]; 2 h): 1.13
- Tissue to Blood Ratio, Intestine ([1]; 2 h): 1.90
- Tissue to Blood Ratio, Kidney ([1]; 2 h): 1.98
- Tissue to Blood Ratio, Liver ([1]; 2 h): 2.39
- Tissue to Blood Ratio, Lung ([1]; 2 h): 1.26
- Tissue to Blood Ratio, Muscle ([1]; 2 h): 0.75
- Tissue to Blood Ratio, Spleen ([1]; 2 h): 1.02
- Tissue to Blood Ratio, Stomach ([1]; 2 h): 3.62
- Tissue to Blood Ratio, Tumor ([1]; 2 h): 2.80
- Tissue to Blood Ratio, Bone ([1]; 4 h): 0.60
- Tissue to Blood Ratio, Carcass ([1]; 4 h): 1.98
- Tissue to Blood Ratio, Heart ([1]; 4 h): 0.71
- Tissue to Blood Ratio, Intestine ([1]; 4 h): 1.80
- Tissue to Blood Ratio, Kidney ([1]; 4 h): 1.46
- Tissue to Blood Ratio, Liver ([1]; 4 h): 2.11
- Tissue to Blood Ratio, Lung ([1]; 4 h): 1.00
- Tissue to Blood Ratio, Muscle ([1]; 4 h): 0.53
- Tissue to Blood Ratio, Spleen ([1]; 4 h): 0.78
- Tissue to Blood Ratio, Stomach ([1]; 4 h): 4.02
- Tissue to Blood Ratio, Tumor ([1]; 4 h): 4.62
- Tissue to Blood Ratio, Bone ([1]; 8 h): 0.57
- Tissue to Blood Ratio, Carcass ([1]; 8 h): 2.00
- Tissue to Blood Ratio, Heart ([1]; 8 h): 1.57
- Tissue to Blood Ratio, Intestine ([1]; 8 h): 5.50
- Tissue to Blood Ratio, Kidney ([1]; 8 h): 2.43
- Tissue to Blood Ratio, Liver ([1]; 8 h): 3.36
- Tissue to Blood Ratio, Lung ([1]; 8 h): 2.36
- Tissue to Blood Ratio, Muscle ([1]; 8 h): 2.57
- Tissue to Blood Ratio, Spleen ([1]; 8 h): 1.29
- Tissue to Blood Ratio, Stomach ([1]; 8 h): 6.21
- Tissue to Blood Ratio, Tumor ([1]; 8 h): 8.71
- thyroid levels ([1]; 8 hours): 7.9 % of the total body activity
- Tissue to Blood Ratio, Bone ([1]; 24 h): 0.59
- Tissue to Blood Ratio, Carcass ([1]; 24 h): 1.03
- Tissue to Blood Ratio, Heart ([1]; 24 h): 1.14
- Tissue to Blood Ratio, Intestine ([1]; 24 h): 1.11
- Tissue to Blood Ratio, Kidney ([1]; 24 h): 1.41
- Tissue to Blood Ratio, Liver ([1]; 24 h): 2.64
- Tissue to Blood Ratio, Lung ([1]; 24 h): 1.00
- Tissue to Blood Ratio, Muscle ([1]; 24 h): 0.54
- Tissue to Blood Ratio, Spleen ([1]; 24 h): 0.97
- Tissue to Blood Ratio, Stomach ([1]; 24 h): 1.81
- Tissue to Blood Ratio, Tumor ([1]; 24 h): 5.56
- thyroid levels ([1]; 24 hours): 33.8 % of the total body activity
- injected dose in tumor at maximum tumor to blood ratio ([1]; at 8 h): 1.22 % of the injected dose
- maximum tumor to blood ratio ([1]; at 8 h): 8.7
- tumor to blood ratio (text, FIG. 7) ([1]; at 24 h): > 5.5
- uptake in EMT-6 tumor tissue ([1]; in words): taken up preferentially in EMT-6 tumor tissue
- deiodination (increase in thyroid radioactivity) ([1]; longer periods (>4 h)): evidence of deiodination at longer periods (>4 h)
- sensitizer enhancement ratio (SER) (EMT-6 cells; 50 μM, 90% cell kill, hypoxic): ~1.4
- sensitisation to lethal effects of ionising radiation (EMT-6 cells; in words): sensitise these cells to the lethal effects of ionising radiation
- delineation of tumor tissue in imaging (EMT-6 tumor tissue): clearly delineated from surrounding tissue
- stability on long term storage in solution [2]: some decomposition of the pure compounds
